Assay results: US20170342021A1, “RAS-INHIBITING INDENYL ACETAMIDE COMPOUNDS, COMPOSITIONS, AND USES” (ADT Pharmaceuticals, Inc., priority 2014, published 2017)

Assays:
[1] = test system: HCT-116 colon tumor cells expressing mutant Ras, compared to HT-29 expressing wild-type Ras; assay: Ras selectivity by growth inhibition, HT-29 versus HCT-116; assay type: cell-based, human; settings: ratio of IC50 in HT-29 to IC50 in HCT-116; 5000 cells/well, 96-well plates, Cell Titer Glo
Description: (§1) This example illustrates cell growth assays that can be employed in the present invention. Cells can include A-549, HT-29, MDA-MB-231, Colo-205, Caco2, HCT-116, SW-480, and DLD-1 human cancer cells obtained from the American Type Culture Collection (ATCC). Human tumor cells are cultured using standard methods in RPMI-1640 growth medium supplemented with 5% fetal bovine serum (FBS). Normal rat kidney (NRK) and Ki-Ras transformed NRK cells (K-NRK) are obtained from ATCC, and were cultured according to supplier recommendations. CellTiter-Glo ATP cell growth assay reagents are obtained from Promega and used according to the manufacturer's protocol. Inhibitors of EGFR, Raf, and MEK are obtained from Selleck Chemicals. Cells are plated at a density of 5,000 cells per well in 96-well microplates or 1,250 cells per well in 384-well plates, and allowed to attach for at least 4 h. Test compounds are dissolved in dimethyl sulfoxide (DMSO), and this working stock is further diluted in growth medium for addition to cell cultures. Serial dilutions of the test compound are prepared in growth medium containing an equal amount of DMSO not exceeding 0.2% final concentration. Each compound concentration is tested in at least 3 separate samples per cell line. At the end of a 3-day treatment period, growth inhibition is analyzed using a bioluminescent assay of ATP concentration (Promega CellTiter-Glo) according to the manufacturer's protocol. The resulting luminescence is measured using the luminescence cartridge of the Molecular Devices Spectramax Paradigm microplate reader. The relative growth inhibition for each sample is determined by comparison with the values obtained for vehicle treated control samples. Growth inhibition values are plotted with the GraphPad Prism5 software using the 4-parameter logistic fit to obtain IC50 values, which corresponds to the growth inhibitory potency of the compound.
(§2) This example illustrates the use of well-established human colon tumor cell lines with widely divergent Ras activation status to determine selectivity values for exemplary compounds of the present invention. Cell lines thus employed in this example were HCT-116, a highly Ras-driven line expressing mutant Ras, SW-480, another strongly Ras-driven line expressing mutant Ras, and HT-29, a non-Ras-driven line expressing wild-type, non-mutated Ras. Cells were plated at 5000 cells/well in 96-well plates, and viable cell numbers were measured using the Cell Titer Glo ATP luminescence assay (Promega). FIGS. 5A-5F show results of these studies for exemplary compounds 054, 058, 057, 055, and 056, respectively. The calculated HT-29/HCT-116 selectivity values for the first five of the aforementioned compounds were 14, 13, 18, 11 and 5, respectively. The calculated HT-29/SW-480 selectivity values for the aforementioned compounds were 16, 16, 19, 13 and 5, respectively.

[2] = test system: SW-480 colon tumor cells expressing mutant Ras, compared to HT-29 expressing wild-type Ras; assay: Ras selectivity by growth inhibition, HT-29 versus SW-480; assay type: cell-based, human; settings: ratio of IC50 in HT-29 to IC50 in SW-480; 5000 cells/well, 96-well plates, Cell Titer Glo
Description: as §1, §2

HCT-116 = assay: CellTiter-Glo growth inhibition, HCT-116; assay type: cell-based, human; settings: ten-fold serial dilutions, ras-mutant line
Description: as §1, with “Cells can include A-549, HT-29, MDA-MB-231, Colo-205, Caco2, HCT-116, SW-480, and DLD-1 human cancer cells obtained from the American Type Culture Collection (ATCC). Human tumor cells are cultured using standard methods in RPMI-1640 growth medium supplemented with 5% fetal bovine serum (FBS).” left out
(§3) Cells were seeded in 384-well plates and allowed to attach. Ten-fold serial dilutions of compounds were tested. Each compound concentration was tested in at least 3 separate samples per cell line.

DLD-1 = assay: CellTiter-Glo growth inhibition, DLD-1; assay type: cell-based, human; settings: ten-fold serial dilutions, ras-mutant line
Description: as §1, with “Cells can include A-549, HT-29, MDA-MB-231, Colo-205, Caco2, HCT-116, SW-480, and DLD-1 human cancer cells obtained from the American Type Culture Collection (ATCC). Human tumor cells are cultured using standard methods in RPMI-1640 growth medium supplemented with 5% fetal bovine serum (FBS).” left out
as §3

SW-480 = assay: CellTiter-Glo growth inhibition, SW-480; assay type: cell-based, human; settings: ten-fold serial dilutions, ras-mutant line
Description: as §1, with “Cells can include A-549, HT-29, MDA-MB-231, Colo-205, Caco2, HCT-116, SW-480, and DLD-1 human cancer cells obtained from the American Type Culture Collection (ATCC). Human tumor cells are cultured using standard methods in RPMI-1640 growth medium supplemented with 5% fetal bovine serum (FBS).” left out
as §3

Caco-2 = assay: CellTiter-Glo growth inhibition, Caco-2; assay type: cell-based, human; settings: ten-fold serial dilutions, wild type Ras line
Description: as §1, with “Cells can include A-549, HT-29, MDA-MB-231, Colo-205, Caco2, HCT-116, SW-480, and DLD-1 human cancer cells obtained from the American Type Culture Collection (ATCC). Human tumor cells are cultured using standard methods in RPMI-1640 growth medium supplemented with 5% fetal bovine serum (FBS).” left out
as §3

HT-29 = assay: CellTiter-Glo growth inhibition, HT-29; assay type: cell-based, human; settings: ten-fold serial dilutions, wild type Ras line
Description: as §1, with “Cells can include A-549, HT-29, MDA-MB-231, Colo-205, Caco2, HCT-116, SW-480, and DLD-1 human cancer cells obtained from the American Type Culture Collection (ATCC). Human tumor cells are cultured using standard methods in RPMI-1640 growth medium supplemented with 5% fetal bovine serum (FBS).” left out
as §3

COLO-205 = assay: CellTiter-Glo growth inhibition, COLO-205; assay type: cell-based, human; settings: ten-fold serial dilutions, wild type Ras line, lowest level of active Ras
Description: as §1, with “Cells can include A-549, HT-29, MDA-MB-231, Colo-205, Caco2, HCT-116, SW-480, and DLD-1 human cancer cells obtained from the American Type Culture Collection (ATCC). Human tumor cells are cultured using standard methods in RPMI-1640 growth medium supplemented with 5% fetal bovine serum (FBS).” left out
as §3

[3] = test system: panel of human colorectal cancer cell lines; assay: Growth inhibition by known Ras pathway inhibitors across the cell line panel; assay type: cell-based; settings: comparison of potency across cell lines with differing Ras activation
Description: This example illustrates cell growth assays that can be employed in the present invention. Cells can include A-549, HT-29, MDA-MB-231, Colo-205, Caco2, HCT-116, SW-480, and DLD-1 human cancer cells obtained from the American Type Culture Collection (ATCC). Human tumor cells are cultured using standard methods in RPMI-1640 growth medium supplemented with 5% fetal bovine serum (FBS). Normal rat kidney (NRK) and Ki-Ras transformed NRK cells (K-NRK) are obtained from ATCC, and were cultured according to supplier recommendations. CellTiter-Glo ATP cell growth assay reagents are obtained from Promega and used according to the manufacturer's protocol. […] At the end of a 3-day treatment period, growth inhibition is analyzed using a bioluminescent assay of ATP concentration (Promega CellTiter-Glo) according to the manufacturer's protocol. The resulting luminescence is measured using the luminescence cartridge of the Molecular Devices Spectramax Paradigm microplate reader. The relative growth inhibition for each sample is determined by comparison with the values obtained for vehicle treated control samples. […]
This example illustrates the levels of Ras activation in different colorectal cancer cells. […] The ratio of the intensity of the Ras to GAPDH bands was expressed as relative Ras activation, which is presented above each lane in FIG. 4. […]

[4] = test system: cells expressing oncogenic H-Ras; settings: literature value, NIH probe report, cited from earlier work
[5] = Homo sapiens, HCT-116, 384-well plates
[6] = Homo sapiens, DLD-1, 384-well plates
[7] = Homo sapiens, SW480, 384-well plates
[8] = Homo sapiens, Caco-2, 384-well plates
[9] = Homo sapiens, HT-29, 384-well plates
[10] = Homo sapiens, COLO 205, 384-well plates

COc1cc(/C=C2/C(C)=C(CC(=O)Nc3ccc(F)cc3)c3cc(F)ccc32)cc(OC)c1O [Compound 054, (Z)-2-(5-fluoro-1-(4-hydroxy-3,5-dimethoxybenzylidene)-2-methyl-1H-inden-3-yl)-N-(4-fluorophenyl)acetamide]
HT-29/HCT-116 selectivity value [1]: 14 | HT-29/SW-480 selectivity value [2]: 16

COc1cc(/C=C2/C(C)=C(CC(=O)Nc3ccc(Cl)cc3)c3cc(F)ccc32)cc(OC)c1O [Compound 055, (Z)—N-(4-chlorophenyl)-2-(5-fluoro-1-(4-hydroxy-3,5-dimethoxybenzylidene)-2-methyl-1H-inden-3-yl)acetamide]
HT-29/HCT-116 selectivity value [1]: 11 | HT-29/SW-480 selectivity value [2]: 13

COc1cc(/C=C2/C(C)=C(CC(=O)Nc3ccc(Cl)c(Cl)c3)c3cc(F)ccc32)cc(OC)c1O [Compound 056, (Z)—N-(3,4-dichlorophenyl)-2-(5-fluoro-1-(4-hydroxy-3,5-dimethoxybenzylidene)-2-methyl-1H-inden-3-yl)acetamide]
HT-29/HCT-116 selectivity value [1]: 5 | HT-29/SW-480 selectivity value [2]: 5

COc1cc(/C=C2/C(C)=C(CC(=O)Nc3ccc(Br)cc3)c3cc(F)ccc32)cc(OC)c1O [Compound 057, (Z)—N-(4-bromophenyl)-2-(5-fluoro-1-(4-hydroxy-3,5-dimethoxybenzylidene)-2-methyl-1H-inden-3-yl)acetamide]
HT-29/HCT-116 selectivity value [1]: 18 | HT-29/SW-480 selectivity value [2]: 19

COc1cc(/C=C2/C(C)=C(CC(=O)Nc3cccc(Br)c3)c3cc(F)ccc32)cc(OC)c1O [Compound 058, (Z)—N-(3-bromophenyl)-2-(5-fluoro-1-(4-hydroxy-3,5-dimethoxybenzylidene)-2-methyl-1H-inden-3-yl)acetamide]
HT-29/HCT-116 selectivity value [1]: 13 | HT-29/SW-480 selectivity value [2]: 16

OCCn1cc(-c2ccc3c(c2)CC/C3=N\O)c(-c2ccncc2)n1 [GDC0879]
IC50 (HCT-116; [5]): 8.14 µM | IC50 (DLD-1; [6]): 7.64 µM | IC50 (SW-480; [7]): > 20 µM | IC50 (Caco-2; [8]): > 20 µM | IC50 (HT-29; [9]): ≥ 23.6 µM | IC50 (COLO-205; [10]): 0.0758 µM

O=C1Nc2ccc(I)cc2/C1=C/c1cc(Br)c(O)c(Br)c1 [GW5074]
IC50 (HCT-116; 384-well plates): 15.8 µM | IC50 (DLD-1; 384-well plates): 7.75 µM | IC50 (SW-480; 384-well plates): 8.07 µM | IC50 (Caco-2; 384-well plates): > 20 µM | IC50 (HT-29; 384-well plates): 19.1 µM | IC50 (COLO-205; 384-well plates): 7.1 µM | selectivity with regard to Ras activation [3]: did not show selectivity for cell lines expressing activated Ras

Cc1onc(C(=O)N2CCN(C(c3ccc(Cl)cc3)c3ccc(Cl)cc3)CC2)c1[N+](=O)[O-] [ML210]
selectivity versus cells lacking oncogenic Ras [4]: 4 fold | IC50 ([4]; read-out: IC50, growth of cells expressing mutant Ras): 0.071 µM

Cn1cnc2c(F)c(Nc3ccc(Br)cc3Cl)c(C(=O)NOCCO)cc21 [Selumetinib]
IC50 (HCT-116; [5]): 4.11 µM | IC50 (DLD-1; [6]): ≥ 20.4 µM | IC50 (SW-480; [7]): > 20 µM | IC50 (Caco-2; [8]): > 20 µM | IC50 (HT-29; [9]): 0.854 µM | IC50 (COLO-205; [10]): 0.0046 µM

CCCS(=O)(=O)Nc1ccc(F)c(C(=O)c2c[nH]c3ncc(-c4ccc(Cl)cc4)cc23)c1F [Vemurafenib]
IC50 (HCT-116; [5]): 5.99 µM | IC50 (DLD-1; [6]): 5.62 µM | IC50 (SW-480; [7]): 6.86 µM | IC50 (Caco-2; [8]): 5.2 µM | IC50 (HT-29; [9]): 5.1 µM | IC50 (COLO-205; [10]): 0.151 µM
